Test system: spontaneous contractions of the bladder
Test: Cystometry on anaesthetized naive rats (suppression of rhythmic spontaneous bladder contractions)
Assay type: in vivo, rat
Conditions: anaesthetized ventilated naive female rats; i.v., cumulative administration; mean of 3 experiments
Experimental: The cystometric investigation of naive female rats was carried out by the method of Kimura et al. (Kimura et al., 1996, Int. J. Urol. 3:218-227). The abdomen of anaesthetized ventilated rats is opened up and the ureter is tied off. The urine is drained from the kidneys. A catheter is inserted into the bladder and fixed. […] After stable starting values are reached, the test substance is administered i.v. in a cumulative manner. An influence on bladder function manifests itself via suppression of spontaneous contractions. The absence of contractions over a period of 10 min is the parameter for the suppression.
A suppression of spontaneous contractions in rats was measurable with all the substances tested.

Row | SMILES | Lowest dose (mean of the lowest dose at which for the first time contractions are absent over a period of 10 min)
1 | COc1cccc(C2(O)CCCCC2CN(C)C)c1 (racemic) [Compound 23, rac-Tramadol, reference compound] | 5.3 (n = 3) mg/kg
2 | CN(C)C[C@H]1CCCC[C@]1(F)c1cccc(O)c1.Cl [Compound 18, (+)-(1R,2R)-3-(2-Dimethylaminomethyl-1-fluoro-cyclohexyl)-phenol, hydrochloride] | 0.2 (n = 3) mg/kg
3 | CN(C)C[C@H]1CCCC[C@@H]1c1cccc(O)c1.Cl [Compound 19, (+)-(1S,2S)-3-(2-Dimethylaminomethyl-cyclohexyl)-phenol, hydrochloride] | 0.1 (n = 3) mg/kg
4 | CN(C)C[C@@H]1CCCC[C@H]1c1cccc(O)c1.Cl [Compound 20, (−)-(1R,2R)-3-(2-Dimethylaminomethyl-cyclohexyl)-phenol, hydrochloride] | 0.5 (n = 3) mg/kg

Reference: patent US6908944B2, “Use of 6-dimethylaminomethyl-1-phenyl-cyclohexane compounds for treatment of urinary incontinence” (Gruenenthal GmbH, priority 2000, dated 2005)
